Assay results as given in patent US20230096766A1, “AMINO ACID HAVING FUNCTIONAL GROUP CAPABLE OF INTERMOLECULAR HYDROGEN BONDING, PEPTIDE COMPOUND CONTAINING SAME AND METHOD FOR PRODUCTION THEREOF” (Chugai Seiyaku Kabushiki Kaisha, priority 2018, published 2023).
*1 amine or outer side, *2 acyl side, *3 side chain or, on linkers, in order; H or OH if unused. Where a SMILES comes first, the peptide text is derived from it. Bridges are numbered along the chain shown (N, C = ends). [ ]: non-standard residue; d: D form. The star is where a group is joined. ξ: configuration not given here. dhPhe(4-CONHMe,3-OMe) = CNC(=O)c1ccc(CC[C@@H](N)C(=O)O)cc1OC; X10 = CN([C@@H](CCN1CCC(F)(F)CC1)C(=O)[*:2])[*:1]; CH2(1,2,4-oxadiazolon-3-yl) = O=c1[nH]c(C*)no1; Phe(4-COOH) = N[C@@H](Cc1ccc(C(=O)O)cc1)C(=O)O; NMePhe(3-Cl) = CN[C@@H](Cc1cccc(Cl)c1)C(=O)O; NMeW = CN[C@@H](Cc1c[nH]c2ccccc12)C(=O)O; NMehPhe = CN[C@@H](CCc1ccccc1)C(=O)O; Propyl(2,2-Me2,3-OH) = CC(C)(CO)C*; X6 = O=C([C@H](CCCCO)N[*:1])[*:2]; NMeF = CN[C@@H](Cc1ccccc1)C(=O)O; NMeGABA = CN(CCCC(=O)[*:2])[*:1]; NMeI = CC[C@H](C)[C@H](NC)C(=O)O; NMeL = CN[C@@H](CC(C)C)C(=O)O; Propyl(2R-OH) = C[C@@H](O)C*; NMeAbu = CC[C@H](NC)C(=O)O; NMeA = CN[C@@H](C)C(=O)O; Piperidide = C1CCN(*)CC1; NBuGly = CCCCNCC(=O)O; NPrGly = CCCNCC(=O)O; ξS = NC(CO)C(=O)O; N(OH)Me = CN(O)*; Sar = CNCC(=O)O; tBu = CC(C)(C)*

Assays:
[1] = Membrane permeability test of cyclic peptides (Caco-2, modified/improved method of WO 2018/124162); settings: human, Caco-2, Caco-2 (cm/sec), membrane permeability of cyclic peptides, Caco-2
[2] = in vitro; settings: human

Row | Compound | Papp [1] | Papp ([2]; Caco-2, Caco-2 (cm/sec)) | also measured
1 | CC[C@H](C)[C@H]1C(=O)N[C@@H]([C@@H](C)O)C(=O)N(C)CC(=O)N(C)[C@@H](CC)C(=O)N[C@H](C(=O)N2CCCCC2)CC(=O)N(C)[C@@H](CC(C)C)C(=O)N[C@@H](Cc2ccc(C(=O)N(C)O)cc2)C(=O)N(C)[C@@H](CC(C)C)C(=O)N(C)[C@@H](Cc2ccccc2)C(=O)N[C@@H](CC(C)C)C(=O)N(C)[C@@H](CC(C)C)C(=O)N1C [AP252] ([NMeL][Phe(4-COOH)](N(OH)Me)[NMeL][NMeF]L[NMeL][NMeI]T[Sar][NMeAbu]D-Piperidide; lactam N-11) | 0.13 ×10⁻⁶ cm/s | – | –
2 | CCCCN1CC(=O)N(C)[C@@H](CC(C)C)C(=O)N[C@H](C(=O)N2CCCCC2)CC(=O)N(C)[C@@H](CC)C(=O)N[C@@H](CC(C)C)C(=O)N(C)[C@@H](CC(C)C)C(=O)N(C)[C@@H](Cc2ccccc2)C(=O)NC(COCc2noc(=O)[nH]2)C(=O)N(C)[C@@H](CC(C)C)C(=O)N(C)[C@@H](CC(C)C)C(=O)N[C@@H]([C@@H](C)O)C1=O (stereo partly drawn) [AP47] ([NMeAbu]L[NMeL][NMeF][ξS](CH2(1,2,4-oxadiazolon-3-yl))[NMeL][NMeL]T[NBuGly][NMeL]D-Piperidide; lactam N-11) | 5.3 ×10⁻⁶ cm/s | – | –
3 | CCCCN1CC(=O)N(C)[C@@H](Cc2cccc(Cl)c2)C(=O)N(C)[C@@H](CC(C)C)C(=O)N[C@@H](COCc2noc(=O)[nH]2)C(=O)N(C)[C@@H](CC(C)C)C(=O)N[C@H](C(=O)N2CCCCC2)CC(=O)N(C)CC(=O)N(C)[C@@H](CC(C)C)C(=O)N[C@@H]([C@@H](C)CC)C(=O)N(C)[C@@H](CC(C)C)C(=O)N[C@@H]([C@@H](C)O)C1=O [AP50] ([Sar][NMeL]I[NMeL]T[NBuGly][NMePhe(3-Cl)][NMeL]S(CH2(1,2,4-oxadiazolon-3-yl))[NMeL]D-Piperidide; lactam N-11) | 0.11 ×10⁻⁶ cm/s | – | –
4 | CC[C@H](C)[C@@H]1NC(=O)[C@H](CC(C)C)N(C)C(=O)CCCN(C)C(=O)C[C@@H](C(=O)N2CCCCC2)NC(=O)[C@H](CC(C)C)N(C)C(=O)[C@H](CC(C)C)N(C)C(=O)[C@H]([C@@H](C)O)NC(=O)[C@H](CC(C)C)N(C)C(=O)[C@H](COC(C)(C)C)NC(=O)[C@H](Cc2c[nH]c3ccccc23)N(C)C(=O)[C@H](Cc2ccccc2)N(C)C1=O [pd107] ([NMeGABA][NMeL]I[NMeF][NMeW]S(tBu)[NMeL]T[NMeL][NMeL]D-Piperidide; lactam N-11) | – | 0.17 ×10⁻⁶ cm/s | –
5 | CCCN1CC(=O)N(C)[C@@H](Cc2cccc(Cl)c2)C(=O)N(C)[C@@H](CC(C)C)C(=O)N[C@@H](CCCCO)C(=O)N(C)[C@@H](CC(C)C)C(=O)N[C@H](C(=O)N2CCCCC2)CC(=O)N(C)CC(=O)N(C)[C@@H](CCc2ccccc2)C(=O)N[C@@H](C(C)C)C(=O)N(C)[C@@H](CC(C)C)C(=O)N[C@@H]([C@@H](C)O)C1=O [Compound B08] ([Sar][NMehPhe]V[NMeL]T[NPrGly][NMePhe(3-Cl)][NMeL][X6][NMeL]D-Piperidide; lactam N-11) | – | 0.15 ×10⁻⁶ cm/s | –
6 | CC[C@H](C)[C@@H]1NC(=O)[C@H](CC(C)C)N(C)C(=O)CCCN(C)C(=O)C[C@@H](C(=O)N2CCCCC2)NC(=O)[C@H](CC(C)C)N(C)C(=O)[C@H](CC(C)C)N(C)C(=O)[C@H]([C@@H](C)O)NC(=O)[C@H](CC(C)C)N(C)C(=O)[C@@H](CCc2ccc(C(=O)NC)c(OC)c2)NC(=O)[C@H](CC(C)C)N(C)C(=O)[C@H](Cc2ccccc2)N(C)C1=O [AP210] ([NMeGABA][NMeL]I[NMeF][NMeL][dhPhe(4-CONHMe,3-OMe)][NMeL]T[NMeL][NMeL]D-Piperidide; lactam N-11) | – | 0.34 ×10⁻⁶ cm/s | –
7 | CC[C@H](C)[C@@H]1NC(=O)[C@H](CC(C)C)N(C)C(=O)[C@H](COC[C@@H](C)O)NC(=O)[C@H](Cc2ccccc2)N(C)C(=O)CN(C)C(=O)C[C@@H](C(=O)N2CCCCC2)NC(=O)[C@H](CC(C)C)N(C)C(=O)[C@H](COC(C)(C)C)NC(=O)[C@H](CC(C)C)N(C)C(=O)[C@H](Cc2ccccc2)N(C)C(=O)CN(C)C1=O [AP88] ([Sar][NMeF]S(Propyl(2R-OH))[NMeL]I[Sar][NMeF][NMeL]S(tBu)[NMeL]D-Piperidide; lactam N-11) | – | 3.3 ×10⁻⁶ cm/s | –
8 | CC[C@H]1C(=O)N[C@@H](CC(C)C)C(=O)N(C)[C@@H](CC(C)C)C(=O)N(C)[C@@H](Cc2ccccc2)C(=O)NC(COCC(C)(C)CO)C(=O)N(C)[C@@H](Cc2ccccc2)C(=O)N(C)[C@@H](CC(C)C)C(=O)N[C@@H]([C@@H](C)O)C(=O)N(C)CC(=O)N(C)[C@@H](CC(C)C)C(=O)N[C@H](C(=O)N2CCCCC2)CC(=O)N1C (stereo partly drawn) [AP122] ([NMeAbu]L[NMeL][NMeF][ξS](Propyl(2,2-Me2,3-OH))[NMeF][NMeL]T[Sar][NMeL]D-Piperidide; lactam N-11) | – | 2.9 ×10⁻⁶ cm/s | –
9 | CCCCN1CC(=O)N(C)[C@@H](CC(C)C)C(=O)N[C@@H](CC(C)C)C(=O)N(C)[C@@H](Cc2ccccc2)C(=O)N(C)[C@@H](C)C(=O)N[C@H](C(=O)N2CCCCC2)CC(=O)N[C@H](C(C)C)C(=O)N(C)[C@@H](Cc2ccccc2)C(=O)N[C@@H](CC(C)C)C(=O)N(C)[C@@H](CCN2CCC(F)(F)CC2)C(=O)N[C@@H]([C@@H](C)O)C1=O [pd394] ([dV][NMeF]L[X10]T[NBuGly][NMeL]L[NMeF][NMeA]D-Piperidide; lactam N-11) | – | – | Papp ([2]; Caco-2, Caco-2): 1.8 ×10⁻⁶ cm/s
